Results: patent publication US9193731B2, “Antimicrobial compounds and methods of making and using the same” (Melinta Therapeutics, Inc., priority 2009, dated 2015)

test system: Escherichia coli strain ATCC25922; experiment: standard microdilution assay to determine minimum inhibitory concentrations (MICs); format: cell-based; conditions: Escherichia coli strain ATCC25922, microdilution
Procedure, shortened: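 E. coli strain ATCC25922 tested per CLSI microdilution methodology (about 100 microliters per well) to find minimum inhibitory concentrations. Activity scored categorically at a 16 micrograms/ml threshold.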

Structure (SMILES)	E. coli ATCC25922 MIC
N=C(N)NCCCNCc1ccc(-n2cc3cc(-c4ccc(S(=O)(=O)N(Cc5ccccc5SC(F)(F)F)C5CCNCC5)cc4)[nH]c3nc2=O)cc1 [Compound 756]	+ (a “+” indicates that the compound has an MIC value of 16 micrograms/ml or less)
N=C(N)NCCCNCc1ccc(-n2cc3cc(-c4ccc(S(=O)(=O)N(CC5CCOCC5)C5CCNCC5)cc4)[nH]c3nc2=O)cc1 [Compound 758]	+ (a “+” indicates that the compound has an MIC value of 16 micrograms/ml or less)
N=C(N)NCCCNCc1ccc(-n2cc3cc(-c4ccc(S(=O)(=O)N(Cc5ccc(Cl)c(SC(F)(F)F)c5)C5CCNCC5)cc4)[nH]c3nc2=O)cc1 [Compound 759]	+ (a “+” indicates that the compound has an MIC value of 16 micrograms/ml or less)
N=C(N)NCCCNCc1ccc(-n2cc3cc(-c4ccc(S(=O)(=O)N(Cc5cc(OC(F)(F)F)ccc5F)C5CCNCC5)cc4)[nH]c3nc2=O)cc1 [Compound 767]	+ (a “+” indicates that the compound has an MIC value of 16 micrograms/ml or less)
N=C(N)NCCCNCc1ccc(-n2cc3cc(-c4ccc(S(=O)(=O)N(CC5COc6ccccc6O5)C5CCNCC5)cc4)[nH]c3nc2=O)cc1 (stereo not shown) [Compound 768]	+ (a “+” indicates that the compound has an MIC value of 16 micrograms/ml or less)
N=C(N)NCCCNCc1ccc(-n2cc3cc(-c4ccc(S(=O)(=O)N(Cc5ccc6nonc6c5)C5CCNCC5)cc4)[nH]c3nc2=O)cc1 [Compound 769]	+ (a “+” indicates that the compound has an MIC value of 16 micrograms/ml or less)

same assay, conditions: Escherichia coli, ATCC25922, Escherichia coli strain ATCC25922, microdilution; read-out: E. coli ATCC25922 MIC

Structure (SMILES)	MIC [µg/mL]
N=C(N)NCCCNCc1ccc(-c2cn3nc(C4CC4)[nH]c3nc2=O)cc1 [Compound 661]	> 16
NCCCNCc1ccc(-c2cn3nc(-c4ccc(F)cc4)[nH]c3nc2=O)cc1 [Compound 662]	> 16
N=C(N)NCCCNCc1ccc(-c2cn3nc(-c4ccc(F)cc4)[nH]c3nc2=O)cc1 [Compound 663]	> 16
CN(C)C1CCN(c2cccc(-c3cc4cn(-c5ccc(CNCCCN)cc5)c(=O)nc4[nH]3)c2)CC1 [Compound 665]	< 16
NCCCNCc1ccc(-c2cn3cc(-c4ccc(C(=O)N5CC[C@@H](F)C5)cc4)[nH]c3nc2=O)cc1 [Compound 668]	> 16
N=C(N)NCCCNCc1ccc(-c2cn3cc(-c4ccc(C(=O)N5CCN(c6ccc(F)cc6)CC5)cc4)[nH]c3nc2=O)cc1 [Compound 670]	> 16
N=C(N)NCCCNCc1ccc(-c2cn3cc(-c4ccc(C(=O)N5CC[C@H](F)C5)cc4)[nH]c3nc2=O)cc1 [Compound 673]	> 16
CN1CCN(c2cccc(-c3cc4cn(-c5ccc(CNCCCN)cc5)c(=O)nc4[nH]3)c2)CC1 [Compound 677]	< 16
CN1CCN(c2cccc(-c3cc4cn(-c5ccc(CNCCCNC(=N)N)cc5)c(=O)nc4[nH]3)c2)CC1 [Compound 678]	< 16
Cc1cc(CNc2cn3cc(-c4ccc(CNCCCN)cc4)c(=O)nc3[nH]2)no1 [Compound 679]	> 16
NCCCNCc1ccc(-c2cn3cc(-c4ccc(C(=O)N5CCNCC5)cc4)[nH]c3nc2=O)cc1 [Compound 682, 6-{4-[(3-Amino-propylamino)-methyl]-phenyl}-2-[4-(piperazine-1-carbonyl)-phenyl]-1H-imidazo[1,2-a]pyrimidin-7-one]	< 16
N=C(N)NCCCNCc1ccc(-c2cn3cc(-c4ccc(C(=O)N5CCNCC5)cc4)[nH]c3nc2=O)cc1 [Compound 683]	< 16
N=C(N)NCCCNCc1ccc(-c2cn3cc(-c4ccc(C(=O)N5CCN(CCN6CCOCC6)CC5)cc4)[nH]c3nc2=O)cc1 [Compound 684]	> 16
NCCCNCc1ccc(-n2cc3cc(CCNC4CCNCC4)[nH]c3nc2=O)cc1 [Compound 687]	< 16
N=C(N)NCCCNCc1ccc(-n2cc3cc(CCN(C(=O)c4ccccc4)C4CCNCC4)[nH]c3nc2=O)cc1 [Compound 688]	< 16
N=C(N)NCCCNCc1ccc(-c2cn3cc(-c4ccc(C(=O)N5CCC(C(N)=O)C5)cc4)[nH]c3nc2=O)cc1 (stereo not shown) [Compound 692]	> 16
N=C(N)NCCCNCc1ccc(-c2cn3cc(-c4ccc(C(=O)N5CCNC(=O)C5)cc4)[nH]c3nc2=O)cc1 [Compound 693]	< 16
NCCCNCc1ccc(-n2cc3cc(-c4ccc(S(=O)(=O)N(Cc5ccc(Cl)c(Cl)c5)C5CCNCC5)cc4)[nH]c3nc2=O)cc1 [Compound 697]	< 16
NCCCNCc1ccc(-c2cn3cc(-c4ccc(C(=O)N5CCS(=O)(=O)CC5)cc4)[nH]c3nc2=O)cc1 [Compound 698]	> 16
CN1CCN(C(=O)c2ccc(-c3cn4cc(-c5ccc(CNCCCN)cc5)c(=O)nc4[nH]3)cc2)CC1 [Compound 699]	> 16
N=C(N)NCCCNCc1ccc(-c2cn3cc(-c4ccc(C(=O)N5CCS(=O)(=O)CC5)cc4)[nH]c3nc2=O)cc1 [Compound 700]	> 16
CS(=O)(=O)N1CCN(C(=O)c2ccc(-c3cn4cc(-c5ccc(CNCCCN)cc5)c(=O)nc4[nH]3)cc2)CC1 [Compound 701]	> 16
N=C(N)NCCCNCc1ccc(-c2cn3cc(-c4ccc(C(=O)N5C6CCC5CC(=O)C6)cc4)[nH]c3nc2=O)cc1 [Compound 703]	> 16
N=C(N)NCCCNCc1ccc(-c2cn3cc(-c4ccc(C(=O)N5CCC(F)(F)CC5)cc4)[nH]c3nc2=O)cc1 [Compound 704]	> 16
N=C(N)NCCCNCc1ccc(-c2cn3cc(-c4ccc(C(=O)NC5CCNC5)cc4)[nH]c3nc2=O)cc1 (stereo not shown) [Compound 705]	< 16
CN1CCN(C(=O)c2ccc(-c3cn4cc(-c5ccc(CNCCCNC(=N)N)cc5)c(=O)nc4[nH]3)cc2)CC1 [Compound 706]	< 16
NCCCNCc1ccc(-c2cn3nc(NC(=O)c4ccc(F)cc4)[nH]c3nc2=O)cc1 [Compound 709]	> 16
NCCCNCc1ccc(-n2cc3cc(-c4ccc(S(=O)(=O)N(CC5CC5)C5CCNCC5)cc4)[nH]c3nc2=O)cc1 [Compound 711]	< 16

Structure (SMILES)	MIC [µg/mL]
N=C(N)NCCCNCc1ccc(-c2cn3cc(-c4ccc(C(=O)N5CCN(CCO)CC5)cc4)[nH]c3nc2=O)cc1 [Compound 713]	< 16
CS(=O)(=O)N1CCN(C(=O)c2ccc(-c3cn4cc(-c5ccc(CNCCCNC(=N)N)cc5)c(=O)nc4[nH]3)cc2)CC1 [Compound 716]	> 16
NCCCNCc1ccc(-c2cn3cc(-c4ccc(C(=O)NC56CC7CC(CC(C7)C5)C6)cc4)[nH]c3nc2=O)cc1 [Compound 717]	> 16
N=C(N)NCCCNCc1ccc(-n2cc3cc(CCNC4CCNCC4)[nH]c3nc2=O)cc1 [Compound 719]	< 16
CN(CCO)C(=O)c1ccc(-c2cn3cc(-c4ccc(CNCCCNC(=N)N)cc4)c(=O)nc3[nH]2)cc1 [Compound 720]	< 16
N=C(N)NCCCNCc1ccc(-c2cn3cc(-c4ccc(C(=O)N5CCN(c6ncccn6)CC5)cc4)[nH]c3nc2=O)cc1 [Compound 721]	> 16
N=C(N)NCCCNCc1ccc(-c2cn3cc(-c4ccc(C(=O)NCCCN5CCNCC5)cc4)[nH]c3nc2=O)cc1 [Compound 722]	< 16
NCCCNCc1ccc(-c2cn3cc(-c4ccc(C(=O)NN5CCOCC5)cc4)[nH]c3nc2=O)cc1 [Compound 723]	> 16
N=C(N)NCCCNCc1ccc(-c2cn3cc(-c4ccc(C(=O)NC56CC7CC(CC(C7)C5)C6)cc4)[nH]c3nc2=O)cc1 [Compound 724]	< 16
N=C(N)NCCCNCc1ccc(-n2cc3cc(-c4ccc(S(=O)(=O)N(Cc5ccc(Cl)c(Cl)c5)C5CCNCC5)cc4)[nH]c3nc2=O)cc1 [Compound 725]	< 16
NCCCNCc1ccc(-n2cc3cc(-c4ccc(S(=O)(=O)N(C5CCNCC5)C5CCOCC5)cc4)[nH]c3nc2=O)cc1 [Compound 726]	< 16
N=C(N)NCCCNCc1ccc(-n2cc3cc(-c4ccc(S(=O)(=O)N(C5CCNCC5)C5CCOCC5)cc4)[nH]c3nc2=O)cc1 [Compound 727]	< 16
N=C(N)NCCCNCc1ccc(-n2cc3cc(-c4ccc(S(=O)(=O)N(CC5CC5)C5CCNCC5)cc4)[nH]c3nc2=O)cc1 [Compound 728]	< 16
COc1ccccc1-c1nn2cc(-c3ccc(CNCCCN)cc3)c(=O)nc2[nH]1 [Compound 734]	> 16
CN(C(=O)c1ccc(-c2cn3cc(-c4ccc(CNCCCNC(=N)N)cc4)c(=O)nc3[nH]2)cc1)C1CCNCC1 [Compound 736]	< 16
CC(C)ONC(=O)c1ccc(-c2cn3cc(-c4ccc(CNCCCNC(=N)N)cc4)c(=O)nc3[nH]2)cc1 [Compound 737]	> 16
NCCCNCc1ccc(-c2cn3cc(-c4ccc(C(=O)N5CC6CC5CN6)cc4)[nH]c3nc2=O)cc1 (stereo not shown) [Compound 742]	< 16
NCCCNCc1ccc(-c2cn3cc(-c4ccc(S(=O)(=O)N5CC[C@@H](F)C5)cc4)[nH]c3nc2=O)cc1 [Compound 743]	> 16
N=C(N)NCCCNCc1ccc(-c2cn3cc(-c4ccc(S(=O)(=O)N5CCC(F)C5)cc4)[nH]c3nc2=O)cc1 (stereo not shown) [Compound 744]	> 16
N=C(N)NCCCNCc1ccc(-c2cn3cc(-c4ccc(C(=O)N5CC6CC5CN6)cc4)[nH]c3nc2=O)cc1 (stereo not shown) [Compound 745]	< 16
NCCCNCc1ccc(-c2cn3cc(-c4ccc(S(=O)(=O)N5CCOCC5)cc4)[nH]c3nc2=O)cc1 [Compound 746]	> 16
N=C(N)NCCCNCc1ccc(-n2cc3cc(-c4cc(C(=O)N5CCN(c6ccc(F)cc6)CC5)cc(N5CCNCC5)c4)[nH]c3nc2=O)cc1 [Compound 755]	< 16
N=C(N)NCCCNCc1ccc(-n2cc3cc(-c4ccc(S(=O)(=O)N(Cc5ccncc5)C5CCNCC5)cc4)[nH]c3nc2=O)cc1 [Compound 757]	< 16
NCCCNCc1ccc(-n2cc3cc(-c4cc(C(=O)Nc5ccc(F)cc5)cc(N5CCNCC5)c4)[nH]c3nc2=O)cc1 [Compound 760]	< 16
N=C(N)NCCCNCc1ccc(-n2cc3cc(-c4cc(C(=O)Nc5ccc(F)cc5)cc(N5CCNCC5)c4)[nH]c3nc2=O)cc1 [Compound 761]	< 16
N=C(N)NCCCNCc1ccc(-c2cn3cc(-c4ccc(S(=O)(=O)N5CCOCC5)cc4)[nH]c3nc2=O)cc1 [Compound 762]	> 16
CCOCc1cc2cn(-c3ccc(CNCCCN)cc3)c(=O)nc2[nH]1 [Compound 764]	> 16
